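Values below derive from 48-hour exposures of cells grown in 96-well plates, with endpoints linearly interpolated between the two concentrations bracketing the appropriate inhibition level. GI50 marks 50% less growth. TGI marks complete inhibition of growth.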
Key:
Test in all cases: NCI anticancer screen, dose series, 48 h
[1] = system: KM12 colon
[2] = system: COLO 205 colon
[3] = system: M14 melanoma
[4] = system: SK-MEL-2 melanoma
[5] = system: RXF 393 renal
[6] = system: SW-620 colon
[7] = system: HCC-2998 colon
[8] = system: SNB-19 CNS
[9] = system: CAKI-1 renal
[10] = system: BT-549 breast
[11] = system: TK-10 renal
[12] = system: SF-268 CNS
[13] = system: LOX IMVI melanoma
[14] = system: A549 NSCLC
[15] = system: HCT-15 colon
[16] = system: SK-MEL-5 melanoma
[17] = system: NCI-H522 lung
[18] = system: OVCAR-8 ovarian
[19] = system: HOP-92 NSCLC
[20] = system: MALME-3M melanoma
[21] = system: UACC-257 melanoma
[22] = system: NCI-H23 lung
[23] = system: NCI/ADR-RES ovarian
[24] = system: SF-295 CNS
[25] = system: OVCAR-4 ovarian
[26] = system: UO-31 renal
[27] = system: DU-145 prostate
[28] = system: MDA-MB-231 breast
[29] = system: HT29 colon
[30] = system: MOLT-4 leukemia
[31] = system: HCT-116 colon
[32] = system: SF-539 CNS
[33] = system: PC-3 prostate
[34] = system: SR leukemia
[35] = system: NCI-H226 lung
[36] = system: SK-MEL-28 melanoma
[37] = system: SN12C renal
[38] = system: MCF7 breast
[39] = system: NCI-H460 lung
[40] = system: UACC-62 melanoma
[41] = system: 786-0 renal
[42] = system: HS 578T breast
[43] = system: OVCAR-5 ovarian
[44] = system: T-47D breast
[45] = system: OVCAR-3 ovarian
[46] = system: HL-60(TB) leukemia
[47] = system: SNB-75 CNS
[48] = system: MDA-MB-435
[49] = system: SK-OV-3 ovarian
[50] = system: RPMI-8226 leukemia
[51] = system: ACHN renal
[52] = system: A498 renal
[53] = system: U251 CNS
[54] = system: EKVX NSCLC
[55] = system: HOP-62 NSCLC

Work on `O=S(=O)(Nc1ccc2ccccc2c1)N1CCCCC1` yielded a GI50 [1] of 4.21 µM, a TGI [1] of 17.2 µM and a GI50 [2] of 9.36 µM. The TGI [2] was 25.3 µM, the GI50 [3] was 8.94 µM and the TGI [3] was 25.5 µM. It also gave a GI50 [4] of 9.85 µM, a TGI [4] of 23.6 µM and a GI50 [5] of 5.58 µM. The TGI [5] was 19.7 µM, the GI50 [6] was 5.7 µM and the TGI [6] was 20.7 µM. For the same compound, the GI50 [7] was 8.35 µM, the TGI [7] was 22.2 µM and the GI50 [8] was 18.4 µM. It also gave a TGI [8] greater than 100 µM, a GI50 [9] of 1.81 µM and a TGI [9] of 7.97 µM. For the same compound, the GI50 [10] was 13.8 µM, the TGI [10] was 28.4 µM and the GI50 [11] was 12.7 µM. For the same compound, the TGI [11] was 32.1 µM, the GI50 [12] was 11.7 µM and the TGI [12] was 28.8 µM. For the same compound, the GI50 [13] was 9.97 µM, the TGI [13] was 24.6 µM and the GI50 [14] was 11.9 µM. For the same compound, the TGI [14] was 38.1 µM, the GI50 [15] was 8 µM and the TGI [15] was 35.2 µM. For the same compound, the GI50 [16] was 8.33 µM, the TGI [16] was 21 µM and the GI50 [17] was 2.49 µM. It also gave a TGI [17] of 8 µM, a GI50 [18] of 19.6 µM and a TGI [18] of 57 µM. It also gave a GI50 [19] of 5.42 µM, a TGI [19] of 20.4 µM and a GI50 [20] of 14.5 µM. The TGI [20] was 34 µM, the GI50 [21] was 10.1 µM and the TGI [21] was 24 µM. For the same compound, the GI50 [22] was 12.2 µM, the TGI [22] was 34 µM and the GI50 [23] was 4.09 µM. The TGI [23] was 22.2 µM, the GI50 [24] was 2.4 µM and the TGI [24] was 15.2 µM. It also gave a GI50 [25] of 15.6 µM, a TGI [25] of 50.1 µM and a GI50 [26] of 6.87 µM. For the same compound, the TGI [26] was 22.9 µM, the GI50 [27] was 12.1 µM and the TGI [27] was 30.3 µM. The GI50 [28] was 10.1 µM, the TGI [28] was 25 µM and the GI50 [29] was 4.87 µM. For the same compound, the TGI [29] was 18.9 µM, the GI50 [30] was 7.21 µM and the TGI [30] was 58 µM. It also gave a GI50 [31] of 9.94 µM, a TGI [31] of 23.4 µM and a GI50 [32] of 10.5 µM. For the same compound, the TGI [32] was 24.9 µM, the GI50 [33] was 13.1 µM and the TGI [33] was 41.5 µM. For the same compound, the GI50 [34] was 4.15 µM, the TGI [34] was 44.6 µM and the GI50 [35] was 14.8 µM. The TGI [35] was 33.2 µM, the GI50 [36] was 12 µM and the TGI [36] was 28 µM. For the same compound, the GI50 [37] was 13.2 µM, the TGI [37] was 29.1 µM and the GI50 [38] was 9.55 µM. It also gave a TGI [38] of 88.9 µM, a GI50 [39] of 10.1 µM and a TGI [39] of 23.3 µM. The GI50 [40] was 8.7 µM, the TGI [40] was 22.2 µM and the GI50 [41] was 13.6 µM. The TGI [41] was 30 µM, the GI50 [42] was 11.9 µM and the TGI [42] was 33.6 µM. For the same compound, the GI50 [43] was 19.5 µM, the TGI [43] was 43.7 µM and the GI50 [44] was 11 µM. The TGI [44] was 45.8 µM, the GI50 [45] was 4.71 µM and the TGI [45] was 16.7 µM. It also gave a GI50 [46] of 9.31 µM, a TGI [46] of 43.2 µM and a GI50 [47] of 2.38 µM. The TGI [47] was 20.7 µM, the GI50 [48] was 1.91 µM and the TGI [48] was 10.8 µM. The GI50 [49] was 8.93 µM, the TGI [49] was 37.4 µM and the GI50 [50] was 17.8 µM. It also gave a TGI [50] of 75.5 µM, a GI50 [51] of 18.1 µM and a TGI [51] of 60.9 µM. It also gave a GI50 [52] of 3.33 µM, a TGI [52] of 15.7 µM and a GI50 [53] of 12 µM. The TGI [53] was 26.7 µM, the GI50 [54] was 7.99 µM and the TGI [54] was 41 µM. The GI50 [55] was 3.93 µM and the TGI [55] was 18.7 µM.

Source: PubChem BioAssay (NCI)
